For one assay, the target named is T1, MRCKβ (Homo sapiens, UniProt Q9Y5S2).
T1 construct: purchased Millipore
In words: IMAP fluorescence polarization in vitro kinase assay, MRCKβ. Particulars: for inhibition at 3 µM: read-out: Inhibition at 3 µM (%); for inhibition at 30 µM: read-out: Inhibition at 30 µM (%); for Inhibition at 3 µM (%) / Inhibition at 30 µM (%): MRCKβ in vitro kinase assay, ATP at enzyme Km (0.7 µM); for Inhibition at 3 µM (%): 3 µM inhibitor; for Inhibition at 30 µM (%): 30 µM inhibitor; for IC50: 10 point dose-response, 0.002–40 µM, 0.7 µM ATP. The class given is biochemical. For orientation: In fluorescence polarisation assays a small probe gives low polarisation when free and higher when bound to something large.

Another assay concerns MRCK. More on the design: method as in earlier work. Particulars: >140 times higher ATP concentration; ref 27 (Amano et al.); cited from earlier work.
Assay [1] relates to MDA MB 231 breast cancer cells. In words: 3-dimensional inverse matrigel invasion assay. In kind it is cell-based. Particulars: 5 days. The source says:
The contribution of MRCK to tumor cell invasion was examined by knocking down both MRCKα and MRCKβ in MB 231 breast cancer cells and determining the effects in a 3-dimensional inverse matrigel invasion assay. The combined MRCKα plus MRCKβ knockdown could be achieved either with two siRNA duplexes targeting each mRNA transcript (MRCKα+β) or with a single siRNA duplex (MRCKα/β) that targets both (Figure 1A). Following plating on the underside of Transwell inserts containing a thick layer of matrigel and allowing 5 days for invasion through the porous filter and into the matrigel, the extent of MDA MB 231 cell invasion was determined by fixing and staining cells with propidium iodide, followed by confocal microscopic optical sectioning at 10 µm intervals (Figure 1B).
Cell invasion assays were as previously described. Complete Matrigel was thawed on ice, diluted 1∶1 with PBS and then 100 µl of diluted matrigel pipetted into Transwell inserts in a 24 well tissue culture plate and left to incubate for 30 minutes at 37°C to set. During this time cell suspensions of 3×10^5 cells per ml from each condition were prepared in their normal growth medium. When the Matrigel had set, the Transwell inserts were inverted and 100 µl of cell suspension pipetted onto the filter. […] ImageJ software was used for quantification. […]

The target of the next assay is T2, MRCKα (Homo sapiens, UniProt Q5VT25).
T2 construct: purchased Millipore
In words: IMAP fluorescence polarization in vitro kinase assay, MRCKα. Particulars: 10 point dose-response, 0.002–40 µM, 0.7 µM ATP. The class given is biochemical. On the procedure:
Activity assays for MRCKα and β were performed using an IMAP fluorescence polarization assay kit (Molecular Devices Inc.). […] Dose response inhibition analyses were performed over a drug concentration range from 0.002–40 µM, and single point inhibition was assessed at 3 or 30 µM drug.

Consider 14 compounds from article PMC3176812, “Co-Crystal Structures of Inhibitors with MRCKβ, a Key Regulator of Tumor Cell Invasion” (PLoS ONE, 2011).

Broadly, the inhibition is the percentage by which the read-out fell short of the control. As usually defined, the Inhibition is the drop in the measured response relative to a control, in per cent. A word on the IC50: it is the concentration at which inhibition is half-maximal.

T1 sequence (Q9Y5S2 whole entry): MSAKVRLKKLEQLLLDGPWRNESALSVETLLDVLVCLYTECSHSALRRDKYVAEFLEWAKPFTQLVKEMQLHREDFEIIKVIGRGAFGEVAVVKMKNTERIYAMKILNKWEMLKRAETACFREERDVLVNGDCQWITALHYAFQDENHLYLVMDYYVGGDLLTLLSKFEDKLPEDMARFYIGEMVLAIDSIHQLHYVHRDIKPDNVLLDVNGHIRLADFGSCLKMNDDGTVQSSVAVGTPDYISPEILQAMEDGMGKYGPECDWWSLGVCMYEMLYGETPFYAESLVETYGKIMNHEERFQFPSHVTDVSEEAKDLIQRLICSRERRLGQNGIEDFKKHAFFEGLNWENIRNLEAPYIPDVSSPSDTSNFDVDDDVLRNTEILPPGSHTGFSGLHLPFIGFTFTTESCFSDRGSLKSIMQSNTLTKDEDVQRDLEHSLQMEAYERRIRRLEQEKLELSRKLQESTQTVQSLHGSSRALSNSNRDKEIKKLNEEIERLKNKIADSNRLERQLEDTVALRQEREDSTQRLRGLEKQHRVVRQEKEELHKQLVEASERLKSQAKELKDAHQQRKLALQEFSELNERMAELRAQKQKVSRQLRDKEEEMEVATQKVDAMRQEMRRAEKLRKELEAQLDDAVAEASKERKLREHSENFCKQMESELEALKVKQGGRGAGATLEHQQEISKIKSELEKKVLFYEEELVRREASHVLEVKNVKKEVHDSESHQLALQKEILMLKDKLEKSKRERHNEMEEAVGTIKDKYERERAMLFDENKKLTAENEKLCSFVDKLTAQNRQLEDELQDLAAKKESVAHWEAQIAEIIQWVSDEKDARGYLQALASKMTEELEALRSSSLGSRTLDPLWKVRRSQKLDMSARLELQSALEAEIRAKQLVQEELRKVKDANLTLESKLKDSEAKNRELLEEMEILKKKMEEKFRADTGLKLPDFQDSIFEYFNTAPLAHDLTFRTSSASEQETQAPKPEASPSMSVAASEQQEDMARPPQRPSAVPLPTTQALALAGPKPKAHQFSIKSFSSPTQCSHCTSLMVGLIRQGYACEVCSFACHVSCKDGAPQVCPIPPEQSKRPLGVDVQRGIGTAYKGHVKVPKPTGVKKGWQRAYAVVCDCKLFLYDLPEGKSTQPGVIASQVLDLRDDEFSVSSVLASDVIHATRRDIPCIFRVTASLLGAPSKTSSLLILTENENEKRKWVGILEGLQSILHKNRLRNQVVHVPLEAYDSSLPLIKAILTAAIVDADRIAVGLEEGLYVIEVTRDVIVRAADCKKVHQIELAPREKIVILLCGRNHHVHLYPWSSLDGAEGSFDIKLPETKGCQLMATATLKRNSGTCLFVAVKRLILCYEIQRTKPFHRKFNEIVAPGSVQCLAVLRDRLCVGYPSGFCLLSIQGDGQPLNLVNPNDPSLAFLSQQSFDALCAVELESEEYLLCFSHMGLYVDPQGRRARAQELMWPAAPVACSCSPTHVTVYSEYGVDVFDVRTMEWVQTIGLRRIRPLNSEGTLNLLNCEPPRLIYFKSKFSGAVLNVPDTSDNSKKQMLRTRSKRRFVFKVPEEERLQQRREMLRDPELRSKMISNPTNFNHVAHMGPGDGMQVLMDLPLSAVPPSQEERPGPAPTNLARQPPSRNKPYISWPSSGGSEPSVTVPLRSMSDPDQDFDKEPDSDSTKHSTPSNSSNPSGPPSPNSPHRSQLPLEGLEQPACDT
T2 sequence (Q5VT25 whole entry): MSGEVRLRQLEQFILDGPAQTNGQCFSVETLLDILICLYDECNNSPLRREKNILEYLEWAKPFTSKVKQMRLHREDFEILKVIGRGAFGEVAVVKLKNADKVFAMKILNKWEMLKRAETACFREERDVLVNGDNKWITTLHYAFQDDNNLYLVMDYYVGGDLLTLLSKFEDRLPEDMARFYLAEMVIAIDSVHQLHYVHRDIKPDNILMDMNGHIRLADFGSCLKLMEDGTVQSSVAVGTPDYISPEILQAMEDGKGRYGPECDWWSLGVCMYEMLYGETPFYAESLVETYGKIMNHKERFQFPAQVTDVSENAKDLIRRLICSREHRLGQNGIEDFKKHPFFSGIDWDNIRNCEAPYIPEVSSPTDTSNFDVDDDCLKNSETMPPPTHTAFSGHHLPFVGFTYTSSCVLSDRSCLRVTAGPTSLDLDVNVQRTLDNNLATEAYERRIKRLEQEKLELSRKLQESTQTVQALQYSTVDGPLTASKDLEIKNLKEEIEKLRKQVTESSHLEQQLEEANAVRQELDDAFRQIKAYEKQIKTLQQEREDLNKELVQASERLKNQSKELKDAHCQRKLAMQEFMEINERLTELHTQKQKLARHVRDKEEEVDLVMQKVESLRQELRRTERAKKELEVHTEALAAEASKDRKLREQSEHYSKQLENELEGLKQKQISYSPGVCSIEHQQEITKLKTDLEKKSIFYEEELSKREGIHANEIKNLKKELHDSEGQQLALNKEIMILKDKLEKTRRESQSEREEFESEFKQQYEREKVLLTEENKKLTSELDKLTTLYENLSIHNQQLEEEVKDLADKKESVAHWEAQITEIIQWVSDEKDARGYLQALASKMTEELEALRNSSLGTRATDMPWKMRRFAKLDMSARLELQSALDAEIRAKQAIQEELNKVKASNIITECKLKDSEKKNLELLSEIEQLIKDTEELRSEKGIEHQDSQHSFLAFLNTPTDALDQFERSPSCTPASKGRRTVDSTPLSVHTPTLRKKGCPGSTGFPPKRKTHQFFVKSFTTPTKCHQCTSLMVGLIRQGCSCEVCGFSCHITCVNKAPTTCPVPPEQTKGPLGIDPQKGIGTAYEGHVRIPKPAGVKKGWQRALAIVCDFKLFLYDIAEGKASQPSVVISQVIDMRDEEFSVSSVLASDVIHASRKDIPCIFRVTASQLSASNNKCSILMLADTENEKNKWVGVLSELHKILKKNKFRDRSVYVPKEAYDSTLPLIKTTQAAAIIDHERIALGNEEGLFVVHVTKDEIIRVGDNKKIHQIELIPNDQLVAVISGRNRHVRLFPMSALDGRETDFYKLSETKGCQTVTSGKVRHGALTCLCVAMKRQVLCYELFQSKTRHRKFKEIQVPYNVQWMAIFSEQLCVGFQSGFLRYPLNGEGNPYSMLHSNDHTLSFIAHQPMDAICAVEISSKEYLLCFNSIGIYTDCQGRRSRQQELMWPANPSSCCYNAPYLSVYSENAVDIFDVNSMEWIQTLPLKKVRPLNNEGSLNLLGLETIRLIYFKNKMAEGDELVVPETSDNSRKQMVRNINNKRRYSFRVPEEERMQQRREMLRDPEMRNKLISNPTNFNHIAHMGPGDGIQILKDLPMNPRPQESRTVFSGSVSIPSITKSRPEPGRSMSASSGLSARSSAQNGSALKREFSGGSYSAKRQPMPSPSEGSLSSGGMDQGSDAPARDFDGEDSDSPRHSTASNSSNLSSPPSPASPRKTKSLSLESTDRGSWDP

In the case of `O=C1Cc2c([nH]c3ccc([N+](=O)[O-])cc23)-c2ccccc2N1` [Alsterpaullone], at MRCKβ, the inhibition at 3 µM turned out to be 90.7% and the inhibition at 30 µM was found to be 78.4%.
Turning to `CN(C)CCCn1cc(C2=C(c3c[nH]c4ccccc34)C(=O)NC2=O)c2ccccc21` [Bisindolylmaleimide I], the “Inhibition at 3 µM (%)” value on MRCKβ stood at 87.9%.
As for `CCn1cnc2c(Nc3cccc(Cl)c3)nc(N[C@H]3CCCC[C@H]3N)nc21` [Cdk1 Inhibitor, CGP74514A], on MRCKβ, the “Inhibition at 3 µM (%)” value was found to be 87.2% and the “Inhibition at 30 µM (%)” value is reported as 100%.
Take `O=S(=O)(c1cccc2cnccc12)N1CCCNCC1` [Fasudil]: the “Inhibition of MRCK activity” value with MRCK was “did not effectively inhibit MRCK activity”.
Consider Cdk1/2 Inhibitor III, for which, at MRCKβ, the “Inhibition at 3 µM (%)” value is reported as 100% and the “Inhibition at 30 µM (%)” value is listed as 100%.
Consider `O=S(=O)(NCCNC/C=C/c1ccc(Br)cc1)c1cccc2cnccc12` [H-89], for which, on MRCKβ, the “Inhibition at 3 µM (%)” value was 79.3% and the “Inhibition at 30 µM (%)” value came out at 99.1%.
Consider `CN[C@@H]1C[C@H]2O[C@@](C)([C@@H]1OC)n1c3ccccc3c3c4c(c5c6ccccc6n2c5c31)C(=O)NC4` [Staurosporine], for which, on MRCKβ, the inhibition at 3 µM worked out at 98.6% and the inhibition at 30 µM was 100%.
On to `COc1ccc2c(c1)c(C1=C(c3c[nH]c4ccccc34)C(=O)NC1=O)cn2CCCN(C)C` [Gö 6983], for which, on MRCKβ, the “Inhibition at 3 µM (%)” value is 88.6% and the “Inhibition at 30 µM (%)” value worked out at 65.1%.
As to `C[C@@H](N)[C@H]1CC[C@H](C(=O)Nc2ccncc2)CC1` [Y-27632], on MRCKβ, the IC50 was 0.47 ± 0.03 µM, the “Inhibition at 3 µM (%)” value is 83.5% and the “Inhibition at 30 µM (%)” value was 96.6%. Further, in assay [1] (MDA MB 231 cells with MRCKα/β siRNA knockdown plus Y-27632 treatment), the “Invasion 40 µm above the transwell filter surface, combination with MRCKα/β knockdown” value is “significantly more effective than either MRCKα/β knockdown or Y-27632 treatment alone”. For the same compound, the “Invasion 40 µm above the transwell filter surface, normalized to NTC siRNA transfected cells” value in assay [1] (NTC siRNA transfected MDA MB 231 cells) was “significantly reduced invasion”.
As to `O=C1Nc2ccc3ncsc3c2/C1=C/c1cnc[nH]1` [PKR Inhibitor], at MRCKβ, the “Inhibition at 3 µM (%)” value turned out to be 80.1% and the “Inhibition at 30 µM (%)” value worked out at 100.5%.
The matching figures for `CN(C)C[C@H]1CCn2c(c(C3=C(c4cn(C)c5ccccc45)C(=O)NC3=O)c3ccccc32)C1` [Ro-32-0432]: 85.2% and 68.2%.
For the compound `COC(=O)[C@@]1(O)C[C@H]2O[C@]1(C)n1c3ccccc3c3c4c(c5c6ccccc6n2c5c31)C(=O)NC4` [K-252a, Nocardiopsis sp., K-252a], at MRCKβ, the “Inhibition at 3 µM (%)” value stood at 87.3% and the “Inhibition at 30 µM (%)” value is given as 98.4%.
The matching figures for `N#CCCc1ccc2c(c1)-c1[nH]c3ccc([N+](=O)[O-])cc3c1CC(=O)N2` [Alsterpaullone, 2-Cyanoethyl]: 98.4% and 94.8%.
With `NC(=O)Nc1sc(-c2ccc(F)cc2)cc1C(N)=O` [TPCA-1, 2-[(aminocarbonyl)amino]-5-(4-fluorophenyl)-3-thiophenecarboxamide], at MRCKβ, the IC50 came out at 1.69 ± 0.13 µM, the inhibition at 3 µM came to 50.1% and the inhibition at 30 µM was found to be 88.9%. The compound also gave an IC50 against MRCKα of 1.04 ± 0.06 µM.
